Measurements as given in publication PMC9862819, “Structural Characterization of Murine Phosphodiesterase 5 Isoforms and Involvement of Cysteine Residues in Supramolecular Assembly” (International Journal of Molecular Sciences, 2023).
Blank lines part the entries; values can stand above or below the compound they belong to.

How the values were obtained:
MmPDE5A3 [1] = target: T1, MmPDE5A3 (Mus musculus, UniProt Q8CG03); set-up: gene Pde5a
MmPDE5A3 [2] = target: T1, MmPDE5A3; experiment: native PAGE conformational shift; [3H]cGMP hydrolysis; added protection of Cys with sildenafil; type: binding; set-up: gene Pde5a; full-length MmPDE5A3 isoform (823 amino acids common to the three isoforms), 3XFLAG tag
MmPDE5A3 [3] = target: T1, MmPDE5A3; experiment: [3H]cGMP hydrolysis assay; also spectrophotometric thiol titration and native PAGE; type: biochemical; set-up: gene Pde5a; full-length MmPDE5A3 isoform (823 amino acids common to the three isoforms), 3XFLAG tag

SMILES: CCCc1nn(C)c2c(=O)[nH]c(-c3cc(S(=O)(=O)N4CCN(C)CC4)ccc3OCC)nc12 [Sild, sildenafil]
- native PAGE conformational shift and protection of Cys from DTNB titration (MmPDE5A3 [1]): the reactive Cys were close to the active site and were shielded by the inhibitor

SMILES: Nc1nc2c(ncn2[C@@H]2O[C@@H]3COP(=O)(O)O[C@H]3[C@H]2O)c(=O)[nH]1 [cGMP]
- native PAGE conformational shift; [3H]cGMP hydrolysis; added protection of Cys w (MmPDE5A3 [2]): the conformation of D3 was also the main outcome of the binding of the substrate and inhibitor (cGMP and sildenafil

- IC50 (MmPDE5A3 [3]): ~30 µM
SMILES: O=C(O)c1cc(SSc2ccc([N+](=O)[O-])c(C(=O)O)c2)ccc1[N+](=O)[O-] [DTNB, 5,5-dithio-bis-(2-nitrobenzoic acid)]
